Where two headings read alike, the source gives them in different places.
Columns and labels:
[1] = Acute toxicity in mice, endoperitoneal administration (LD50, Lichtfield and Wilcoxon); design: species or system mouse (Swiss albino); settings: in vivo, ip, mouse, mortality within eight days
Description: (§1) Acute toxicity was determined on Swiss albino mice having an average weight of about 20 grams and on Wistar rats having an average weight of 150±10 grams by endoperitoneal administration. All animals were kept fasting for 12 hours before the trial. For the trial, 10 animals, namely 5 males and 5 females, were used for each dose level.
(§2) The LD50 values, expressed as mg/kg, are calculated on the basis of the mortality determined within eight days from administration, in accordance with the Lichtfield and Wilcoxon method.

[2] = test system: ulcers induced by ligature of the pylorus; experiment: Antiulcer activity against ulcers induced by ligature of the pylorus (Shay test); assay type: in vivo, rat (Sprague Dawley); settings: rat, oral
Description: 2. ANTIULCER ACTIVITY against ulcers induced by ligature of the pylorus (Shay test): Groups of 10 Sprague Dawley rats of body weight between 200 and 250 grams were placed in cages under conditions of standard temperature (21°±2° C.), standard relative humidity (60-70%) and standard light (12 hours per day).
The animals were fed with rat pellets and with water at will.
The derivatives to be tested were administered orally 6, 12, 24 and 36 hours before ligature of the pylorus, after dispersion in physiological solution using Tween 80 as dispersant in a quantity of 1% and carboxymethylcellulose in a quantity of 0.2%. The volume administered was 10 ml/kg.
Before ligature, the rats had been kept without food for 18 hours but with free access to water, the pylorus ligature then being made under ether anesthetic, with suture of the peritoneum and of the abdominal wall.
The animals were then kept without food or water, and 18 hours after ligature were sacrificed using chloroform, their stomachs then being withdrawn and opened along the small curvature.
The gastric surface was extended to observe the ulcers, the evaluation being made by measuring their maximum width.

[3] = Acute toxicity in rats, endoperitoneal administration (LD50, Lichtfield and Wilcoxon); design: species or system rat (Wistar); settings: in vivo, ip, rat, mortality within eight days
Description: as §1, §2

[4] = test system: ulcers induced by cold stress; experiment: Antiulcer activity against ulcers induced by cold stress; assay type: in vivo, rat (Wistar); settings: rat, oral
Description: 3. ANTIULCER ACTIVITY against ulcers induced by cold stress: This trial was carried out on Wistar rats weighing about 300 grams each.
The animals were divided randomly into groups of 10 animals each and kept without food for 18 hours before the trial, but had unrestricted water. […]
After ligature, the animals were placed in a refrigerator at a temperature of between 2° C. and 4° C. for two hours.
After this time the rats were sacrificed, their stomachs were withdrawn and opened along the small curvature, and the gastric mucosa checked.
The number of ulcers was counted and their relative diameters measured. From these individual data the mean value for each treatment group was obtained and the inhibition capacity calculated as a percentage relative to the control group, using the following formula: [formula] where C is the mean value in mm for the control group and T the mean value for the group treated with the derivative under examination.

[5] = species not given, prior art; cited from earlier work
[6] = prior art, cited from earlier work
[7] = 6 h before pylorus ligature, read-out: ED50 by oral administration at 6 h before pylorus ligature
[8] = 12 h before pylorus ligature, * P < 0.05 versus WAS 4303 (so in the source), read-out: ED50 by oral administration at 12 h before pylorus ligature
[9] = 24 h before pylorus ligature, * P < 0.05 versus WAS 4303 (so in the source), read-out: ED50 by oral administration at 24 h before pylorus ligature
[10] = 36 h before pylorus ligature, * P < 0.05 versus WAS 4303 (so in the source), read-out: ED50 by oral administration at 36 h before pylorus ligature
[11] = 6 h before cold stress, read-out: ED50 by oral administration at 6 h before commencement of cold stress
[12] = 12 h before cold stress, * P < 0.05 versus WAS 4303 (so in the source), read-out: ED50 by oral administration at 12 h before commencement of cold stress
[13] = 24 h before cold stress, * P < 0.05 versus WAS 4303 (so in the source), read-out: ED50 by oral administration at 24 h before commencement of cold stress
[14] = 36 h before cold stress, * P < 0.05 versus WAS 4303 (so in the source), read-out: ED50 by oral administration at 36 h before commencement of cold stress

SMILES	LD50 at 192 h [1]	ED50 [2, 7]	ED50 [2, 8]	ED50 [2, 9]	ED50 [2, 10]	LD50 at 192 h [3]	ED50 [4, 11]	ED50 [4, 12]	ED50 [4, 13]	ED50 [4, 14]	LD50 for intraperitoneal administration [5]	antiulcer activity when administered intraperitoneally ([6]; intraperitoneal, experimental tests)	duration of activity [6]
CCCCCCCCCC(=O)O[C@H](c1ccccc1)[C@H](C)N(C)CC=C1c2ccccc2CCc2ccccc21 (relative stereo) [ET 2001]	585 mg/kg	0.5 mg/kg	0.5 mg/kg	0.7 mg/kg	1.3 mg/kg	510 mg/kg	0.4 mg/kg	0.9 mg/kg	1.2 mg/kg	2.1 mg/kg	–	–	–
C[C@@H]([C@H](OC(=O)c1cccnc1)c1ccccc1)N(C)CC=C1c2ccccc2CCc2ccccc21 (relative stereo) [ET 2003]	580 mg/kg	0.4 mg/kg	0.4 mg/kg	0.7 mg/kg	1.2 mg/kg	618 mg/kg	0.6 mg/kg	0.9 mg/kg	1.3 mg/kg	1.7 mg/kg	–	–	–
C[C@@H]([C@H](OC(=O)c1cccs1)c1ccccc1)N(C)CC=C1c2ccccc2CCc2ccccc21 (relative stereo) [ET 2004]	630 mg/kg	0.5 mg/kg	0.4 mg/kg	0.6 mg/kg	1 mg/kg	681 mg/kg	0.6 mg/kg	0.8 mg/kg	1.4 mg/kg	1.8 mg/kg	–	–	–
C[C@@H]([C@H](O)c1ccccc1)N(C)CC=C1c2ccccc2CCc2ccccc21 (relative stereo) [WAS 4304, reference compound]	127 mg/kg	0.2 mg/kg	1.1 mg/kg	1.8 mg/kg	2.4 mg/kg	87 mg/kg	0.4 mg/kg	1.6 mg/kg	2.5 mg/kg	2.8 mg/kg	115 mg/kg	very interesting antiulcer activity	very limited duration
C[C@@H]([C@H](OC(=O)C(N)Cc1cnc[nH]1)c1ccccc1)N(C)CC=C1c2ccccc2CCc2ccccc21 (some centres unmarked) [ET 2002]	535 mg/kg	0.4 mg/kg	0.5 mg/kg	0.8 mg/kg	1.1 mg/kg	590 mg/kg	0.7 mg/kg	1 mg/kg	1.4 mg/kg	1.9 mg/kg	–	–	–

Source: patent publication US4990522A, “Esterified ephedrine derivatives with prolonged antiulcer activity” (Establissement Texcontor, priority 1987, dated 1991)
